From US9238821B2, “Metabolic engineering for plant disease resistance” (The Samuel Roberts Noble Foundation, Inc., priority 2009, dated 2016)
Several values for one entry are separate records, joined by “and”; a condition that tells them apart may be missing. Identical values can stand only once. Entries after “also recorded” stand apart in the source; their conditions may differ.

System: P. omnivora
Experiment: Fungal inhibition assay against P. omnivora on PDA medium
Assay type: cell-based, Phymatotrichopsis omnivora
Settings: for in vitro growth inhibitory activity against P. omnivora (in words): PDA medium, 0.1 mM and 0.5 mM; for Fungal growth score (arbitrary scale 0 to 5): 120 h, 0 = no fungal growth (best inhibition), 5 = best fungal growth (no inhibition), two replicate columns

Compound | in vitro growth inhibitory activity against P. omnivora (in words) | Fungal growth score (arbitrary scale 0 to 5) (compound 0.1 mM in PDA medium) | Fungal growth score (arbitrary scale 0 to 5) (compound 0.5 mM in PDA medium) | in vitro growth inhibitory activity against P. omnivora (in words) (listed as 7, 4′-dihydroxyflavone)
O=c1cc(-c2ccc(O)cc2)oc2cc(O)c(O)cc12 [6,7,4′-trihydoxyflavone] | not active |  |  | 
O=c1cc(-c2ccc(O)cc2)oc2cc(O)ccc12 [7,4′-dihydroxyflavone] | strongly inhibited; also recorded: inhibited; also recorded: substantial in vitro growth inhibitory activity; also recorded: inhibit growth | 3 | 0 | substantial in vitro growth inhibitory activity
O=c1cc(-c2ccc(O)cc2)oc2cc(O)cc(O)c12 [apigenin] | not in vitro active | 5 | 5 | 
Oc1ccccc1O [catechol, reference compound] |  | 2 | 0 | 
COc1ccc(-c2coc3cc(O)ccc3c2=O)cc1 [formononetin, reference compound] | not active | 4 | 4 | 
O=C(/C=C/c1ccc(O)cc1)c1ccc(O)cc1O [isoliquiritigenin] |  | 4 | 4 | 
O=C1C[C@@H](c2ccc(O)cc2)Oc2cc(O)ccc21 [liquiritigenin] | no inhibition activity | 5 | 5 | 
O=C1C[C@@H](c2ccc(O)cc2)Oc2cc(O)cc(O)c21 [naringenin] | no inhibition activity | 4 and 5 | 3 and 5 | 
medicarpin | strong inhibition; also recorded: inhibited; also recorded: substantial in vitro growth inhibitory activity; also recorded: inhibit growth | 2 and 1 | 1 and 0 | 
